Columns and labels:
CDK4/cyclin D3 = molecular target: T1, CDK4/cyclin D3 (Homo sapiens, UniProt P11802); test: Human CDK4/cyclin D3 inhibitory activity (QS S Assist CDK4/Cyclin D3_FP Kit, IMAP fluorescence polarization); format: biochemical; conditions: 50% inhibitory concentration against CDK4/cyclin D3, given as class symbol
T1 construct: purchased Carna Biosciences, Inc. QS S Assist CDK4/Cyclin D3_FP Kit
In short: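 IMAP fluorescence-polarization kinase assay with kit ATP/substrate/metal mix and 12.5 to 25 ng/well enzyme in 20 mM HEPES pH 7.4, 0.01% Tween20, 2 mM DTT. Reaction ran 45 min at room temperature, then binding reagent was added for 30 min in the dark. IC50 was taken from dose-response fits of percent inhibition.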

CDK2/cyclin A2 = molecular target: T2, CDK2/cyclin A2 (Homo sapiens, UniProt P24941); test: Human CDK2/cyclin A2 inhibitory activity (QS S Assist CDK2/Cyclin A2_FP Kit, IMAP fluorescence polarization); format: biochemical; conditions: 50% inhibitory concentration against CDK2/cyclin A2, given as class symbol
T2 construct: purchased Carna Biosciences, Inc. QS S Assist CDK2/Cyclin A2_FP Kit
In short: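 Kinase activity read as fluorescence polarization (485/535 nm) after phosphorylated fluorescent substrate binds IMAP reagent (30 min, RT, dark). Enzyme (2.5 ng/well) reacted 60 min at RT with ATP/substrate/metal in HEPES pH 7.4 buffer with Tween 20 and DTT; no-enzyme wells define 0% activity; IC50 by curve fit.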

T1 sequence (P11802 whole entry): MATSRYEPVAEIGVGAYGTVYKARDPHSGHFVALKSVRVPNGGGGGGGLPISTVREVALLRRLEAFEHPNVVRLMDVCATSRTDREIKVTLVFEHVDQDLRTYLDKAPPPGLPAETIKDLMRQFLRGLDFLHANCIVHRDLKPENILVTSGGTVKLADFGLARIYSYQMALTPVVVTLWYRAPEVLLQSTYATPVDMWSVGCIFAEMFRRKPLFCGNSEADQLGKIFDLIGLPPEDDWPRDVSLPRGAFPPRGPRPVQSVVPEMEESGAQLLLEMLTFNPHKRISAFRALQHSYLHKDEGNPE
T1 sequence (P30281 whole entry partner): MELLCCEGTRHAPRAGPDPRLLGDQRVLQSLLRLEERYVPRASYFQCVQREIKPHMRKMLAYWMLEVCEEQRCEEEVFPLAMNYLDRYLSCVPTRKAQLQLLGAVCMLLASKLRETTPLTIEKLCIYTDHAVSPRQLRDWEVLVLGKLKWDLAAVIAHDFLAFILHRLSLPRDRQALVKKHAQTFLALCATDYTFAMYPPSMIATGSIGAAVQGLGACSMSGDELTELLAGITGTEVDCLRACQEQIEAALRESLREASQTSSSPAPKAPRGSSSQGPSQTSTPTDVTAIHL

| Compound | IC50 (CDK4/cyclin D3) [nM] | IC50 (CDK2/cyclin A2) [nM] |
| --- | --- | --- |
| OCCN1CCc2nc(Nc3ncc4cc(C5CCOC5)nc(N[C@H]5CCCOC5)c4n3)ccc2C1 (stereo partly drawn) [Compound 1122] | < 10 | ≥ 100 |
| CCCNc1nc([C@@H](C)O)cc2cnc(Nc3ccc4c(n3)CCN(CCO)C4)nc12 [Compound 1123] | 10 to 100 | ≥ 100 |
| CCNc1nc([C@@H](C)O)cc2cnc(Nc3ccc4c(n3)CCN(CCO)C4)nc12 [Compound 1124] | 10 to 100 | ≥ 100 |
| C[C@@H](O)c1cc2cnc(Nc3ccc4c(n3)CCN(CCO)C4)nc2c(N[C@H]2CCCOC2)n1 [Compound 1125] | < 10 | ≥ 100 |
| C[C@@H](O)c1cc2cnc(Nc3ccc(CN4CCC(O)CC4)cn3)nc2c(N[C@H]2CCCOC2)n1 [Compound 1126] | < 10 | ≥ 100 |
| C[C@@H](O)c1cc2cnc(Nc3ccc(CN4CCCC(O)C4)cn3)nc2c(NC(C)(C)C)n1 (stereo partly drawn) [Compound 1127] | < 10 | ≥ 100 |
| C[C@@H](O)c1cc2cnc(Nc3ccc(CN4CCCC(O)C4)cn3)nc2c(N[C@H]2CCCOC2)n1 (stereo partly drawn) [Compound 1128] | < 10 | ≥ 100 |
| CC1(c2cc3cnc(Nc4ccc5c(n4)CCN(CCO)C5)nc3c(N[C@H]3CCCOC3)n2)COC1 [Compound 1129] | < 10 | ≥ 100 |
| CCCNc1nc([C@@H](C)OC)cc2cnc(Nc3ccc4c(n3)CCN(CCN(C)C)C4)nc12 [Compound 1130] | 10 to 100 | ≥ 100 |
| CCNc1nc([C@@H](C)OC)cc2cnc(Nc3ccc4c(n3)CCN(CCN(C)C)C4)nc12 [Compound 1131] | 10 to 100 | ≥ 100 |
| CO[C@H](C)c1cc2cnc(Nc3ccc4c(n3)CCN(CCN(C)C)C4)nc2c(N[C@H]2CCCOC2)n1 [Compound 1132] | < 10 | ≥ 100 |
| CCCNc1nc([C@@H](C)OC)cc2cnc(Nc3ccc4c(n3)CCN(C(=O)OCCN(C)C)C4)nc12 [Compound 1133] | < 10 | ≥ 100 |
| CCNc1nc([C@@H](C)OC)cc2cnc(Nc3ccc4c(n3)CCN(C(=O)OCCN(C)C)C4)nc12 [Compound 1134] | < 10 | ≥ 100 |
| CO[C@H](C)c1cc2cnc(Nc3ccc4c(n3)CCN(C(=O)OCCN(C)C)C4)nc2c(N[C@H]2CCCOC2)n1 [Compound 1135] | < 10 | ≥ 100 |
| CN(C)CCOC(=O)N1CCc2nc(Nc3ncc4cc(C5CCOC5)nc(N[C@H]5CCCOC5)c4n3)ccc2C1 (stereo partly drawn) [Compound 1136] | < 10 | ≥ 100 |
| CN(C)CCOC(=O)N1CCc2nc(Nc3ncc4cc(C5(C)COC5)nc(N[C@H]5CCCOC5)c4n3)ccc2C1 [Compound 1137] | < 10 | ≥ 100 |
| CCCNc1nc([C@@H](C)O)cc2cnc(Nc3ccc4c(n3)CCN(CCN(C)C)C4)nc12 [Compound 1138] | < 10 | ≥ 100 |
| CCNc1nc([C@@H](C)O)cc2cnc(Nc3ccc4c(n3)CCN(CCN(C)C)C4)nc12 [Compound 1139] | < 10 | ≥ 100 |
| C[C@@H](O)c1cc2cnc(Nc3ccc4c(n3)CCN(CCN(C)C)C4)nc2c(N[C@H]2CCCOC2)n1 [Compound 1140] | < 10 | ≥ 100 |
| CCCNc1nc([C@@H](C)O)cc2cnc(Nc3ccc4c(n3)CCN(C(=O)OCCN(C)C)C4)nc12 [Compound 1141] | < 10 | ≥ 100 |
| CCNc1nc([C@@H](C)O)cc2cnc(Nc3ccc4c(n3)CCN(C(=O)OCCN(C)C)C4)nc12 [Compound 1142] | < 10 | ≥ 100 |
| C[C@@H](O)c1cc2cnc(Nc3ccc4c(n3)CCN(C(=O)OCCN(C)C)C4)nc2c(N[C@H]2CCCOC2)n1 [Compound 1143] | < 10 | ≥ 100 |
| CO[C@H](C)c1cc2cnc(Nc3ccc4c(n3)CCN(C(=O)CO)C4)nc2c(N[C@H]2CC[C@H](O)CC2)n1 [Compound 1144] | < 10 | ≥ 100 |
| O=C(CO)N1CCc2nc(Nc3ncc4cc(C5CCOC5)nc(N[C@H]5CC[C@H](O)CC5)c4n3)ccc2C1 (stereo partly drawn) [Compound 1145] | < 10 | ≥ 100 |
